How the values were obtained:
NHBE cells [1] = experiment: ROS-Glo H2O2 assay (non-lytic) in NHBE cells; type: cell-based, human
Protocol: • 1. A tissues sample is treated basolaterally in medium containing 25 μM ROS-GloTM H2O2 substrate for the desired exposure duration. • Treatment duration is not longer than 6 hours due to instability of the substrate. • 2. After treatment, 75 μL of the medium is collected for the ROS endpoint (see example 3), and the remaining cell or tissue sample transferred to new 24-well plate for the GSH/GSSG endpoint. ROS samples are stored at 4° C. for a maximum total of 6 hours taking into account the treatment duration, while GSH/GSSG samples must be processed immediately. This Specific Example is Based on Non-Lytic Variant of ROS-GloTM H2O2 Assay Kit Catalogue #[…] and Described in Technical Manual TM391 from Promega. • (a) 75 μL of sample medium collected in Example 1, step 2, and 75 μL of compound interference controls are added to an assay plate. • (b) 10 wells, 100 μL per well are added to the assay plate for standard curve calibration. • (c) 75 μL of freshly prepared ROS-Glo Detection SolutionTM is added to all samples and compound interference control wells. D-cysteine is added on top if not present in reagents, preferably 0.01 to 20 mM, preferably 0.1 to 10 mM. • (d) 100 μL of ROS-Glo Detection SolutionTM is added to standard curve wells. • (e) The assay plate is shaken for 1 minute at room temperature on a plate shaker set at 300 rpm. • (f) The plate is incubated for 20 minutes standing at room temperature. • (g) Luminescence is measured with FLUOstar® Omega using the pre-defined “ROS-GloTM H2O2 assay”. In this example oxidative stress was simulated by adding menadione sodium bisulfite to four samples. Four of the samples had 10 μM, 30 μM, 100 μM or 300 μM of menadione sodium bisulfite respectively added to the medium to simulate increasing levels of oxidative stress. The fifth sample was used as the vehicle control wherein on the medium and 0.3% water were added. The assays were performed in triplicate on NHBE cells. In the top row of FIG. 9, the same experiments of the invention as per Example 6 (shown top row of FIG. 8) were carried out. […]

NHBE cells [2] = experiment: Modified GSH/GSSG-Glo assay in NHBE cells; type: cell-based, human
Protocol: • 1. A tissues sample is treated basolaterally in medium containing 25 μM ROS-GloTM H2O2 substrate for the desired exposure duration. • Treatment duration is not longer than 6 hours due to instability of the substrate. • 2. After treatment, 75 μL of the medium is collected for the ROS endpoint (see example 3), and the remaining cell or tissue sample transferred to new 24-well plate for the GSH/GSSG endpoint. ROS samples are stored at 4° C. for a maximum total of 6 hours taking into account the treatment duration, while GSH/GSSG samples must be processed immediately. This Specific Example Based on GSH/GSSG-GloTM Assay Kit Catalogue #[…] and Described in Technical Manual #TM344 from Promega • (A) Starting with the cell or tissue sample from point 2 of Example 1, the cell supernatant is removed. • (B) 100 μL of cold Passive lysis buffer is 1× diluted in water is added per well, to tissue/cell samples and shaken for 5 min at 300 rpm on ice. • (C) 100 μL of lysate is placed into 2 wells containing 50 μL each. • (D) In one well 1 μL of Luciferin-NT is added for quantification of total GSH. • (E) In the other well, 1 μL of Luciferin-NT and 0.5 μL of N-Ethylmaleimide (NEM) at 25 mM is added for quantification of oxidized GSSG. • (F) Both wells are incubated for 5 min shaking at 300 rpm at room temperature. • (G) 50 μL of Luciferin Generation Reagent is added per well, and both wells shaken for 1 min. • (H) Both wells are incubated for 29 min standing at room temperature. • (I) 100 μL of Luciferin detection reagent is added to both wells and they are shaken for 1 min. • (J) Both wells are incubated for 14 min. • (K) Both wells are transferred to an assay plate containing a calibration curve (suitably prepared as in the supplier's protocol). • (L) The luminescence of each well is measured with FLUOstar® Omega “GSHG assay” In this example oxidative stress was simulated by adding menadione sodium bisulfite to four samples. Four of the samples had 10 μM, 30 μM, 100 μM or 300 μM of menadione sodium bisulfite respectively added to the medium to simulate increasing levels of oxidative stress. The fifth sample was used as the vehicle control wherein on the medium and 0.3% water were added. The assays were performed in triplicate on NHBE cells. In the top row of FIG. 9, the same experiments of the invention as per Example 6 (shown top row of FIG. 8) were carried out. In addition, the ROS endpoint analysis method of the invention (as per Example 5 above) was carried out on the same samples at the 1 hour and 2 hour time points (shown in FIG. 9, bottom row). A star (*) indicates significance P<0.05 paired t-test. Two stars (**) indicates significance P<0.01 paired t-test. The cells used where an NHBE cell line exposed to water-soluble menadione sodium bisulfite.

3D bronchial cultures [3] = experiment: Modified GSH/GSSG-Glo assay in 3D bronchial cultures; type: cell-based, human
Protocol: (§1) • 1. A tissues sample is treated basolaterally in medium containing 25 μM ROS-Glo™ H2O2 substrate for the desired exposure duration. • Treatment duration is not longer than 6 hours due to instability of the substrate. • 2. After treatment, 75 μL of the medium is collected for the ROS endpoint (see example 3), and the remaining cell or tissue sample transferred to new 24-well plate for the GSH/GSSG endpoint. ROS samples are stored at 4° C. for a maximum total of 6 hours taking into account the treatment duration, while GSH/GSSG samples must be processed immediately.
This Specific Example Based on GSH/GSSG-Glo™ Assay Kit Catalogue #V6611 and V6612 and Described in Technical Manual #TM344 from Promega • (A) Starting with the cell or tissue sample from point 2 of Example 1, the cell supernatant is removed. • (B) 100 μL of cold Passive lysis buffer is 1× diluted in water is added per well, to tissue/cell samples and shaken for 5 min at 300 rpm on ice. • (C) 100 μL of lysate is placed into 2 wells containing 50 μL each. • (D) In one well 1 μL of Luciferin-NT is added for quantification of total GSH. • (E) In the other well, 1 μL of Luciferin-NT and 0.5 μL of N-Ethylmaleimide (NEM) at 25 mM is added for quantification of oxidized GSSG. • (F) Both wells are incubated for 5 min shaking at 300 rpm at room temperature. • (G) 50 μL of Luciferin Generation Reagent is added per well, and both wells shaken for 1 min. • (H) Both wells are incubated for 29 min standing at room temperature. • (I) 100 μL of Luciferin detection reagent is added to both wells and they are shaken for 1 min. • (J) Both wells are incubated for 14 min. • (K) Both wells are transferred to an assay plate containing a calibration curve (suitably prepared as in the supplier's protocol). • (L) The luminescence of each well is measured with FLUOstar® Omega “GSHG assay”
(§2) A 3D bronchial culture can be provided by isolating bronchial cells or using commercially available primary cells, culturing them and seeding them on a 3D framework. Suitable cultures include MucilAir™. MucilAir™ is an in vitro cell model of the human airway eplithelium cultures at the air liquid interface and available from Epithelix (for example, here https://www.epithelix.com/products/mucilair).
(§3) FIG. 11 is a further schematic showing how GSH/GSSG and ROS assays (as detailed in Example 4 and Example 5 above) can be adapted to 3D bronchial cultures. In this experiment, three 3D cultures were used. […] The GSH/GSSG-Glo assays were performed on samples from the cell culture within the culture insert and the ROS-Glo assays were performed on the basolateral medium. This was performed in triplicate.

3D bronchial cultures [4] = experiment: ROS-Glo H2O2 assay on basolateral medium of 3D bronchial cultures; type: cell-based, human
Protocol: as §1
(§4) This Specific Example is Based on Non-Lytic Variant of ROS-Glo™ H2O2 Assay Kit Catalogue #G8820 and G8821 and Described in Technical Manual TM391 from Promega. • (a) 75 μL of sample medium collected in Example 1, step 2, and 75 μL of compound interference controls are added to an assay plate. • (b) 10 wells, 100 μL per well are added to the assay plate for standard curve calibration. • (c) 75 μL of freshly prepared ROS-Glo Detection Solution™ is added to all samples and compound interference control wells.
as §2, §3

HeLa = conditions: HeLa, 5,000 cells/well, menadione-treated; cited from earlier work
Rat hepatocytes = conditions: Rat hepatocytes, 50,000 cells/well, menadione-treated; cited from earlier work
A549 lung cell line [5] = experiment: ROS-Glo H2O2 assay in A549 lung cell line; type: cell-based, human; conditions: A549, dose-dependent
Protocol: as §4
In this experiment, an A549 lung cell line was exposed to lipid-soluble menadione (Vitamin K3) to simulate oxidative stress.

3D bronchial cultures [6] = experiment: Cell viability in 3D bronchial cultures; type: cell-based, human; conditions: lipid-soluble menadione
HepG2 = conditions: HepG2, 10,000 cells/well, menadione-treated; cited from earlier work
A549 lung cell line [7] = experiment: Cell viability in A549 lung cell line; type: cell-based, human; conditions: A549, two highest concentrations
A549 lung cell line [8] = experiment: GSH/GSSG assay in A549 lung cell line; type: cell-based, human; conditions: A549, dose-dependent
Protocol: This Specific Example Based on GSH/GSSG-Glo™ Assay Kit Catalogue #V6611 and V6612 and Described in Technical Manual #TM344 from Promega • (A) Starting with the cell or tissue sample from point 2 of Example 1, the cell supernatant is removed. • (B) 100 μL of cold Passive lysis buffer is 1× diluted in water is added per well, to tissue/cell samples and shaken for 5 min at 300 rpm on ice. • (C) 100 μL of lysate is placed into 2 wells containing 50 μL each. • (D) In one well 1 μL of Luciferin-NT is added for quantification of total GSH. • (E) In the other well, 1 μL of Luciferin-NT and 0.5 μL of N-Ethylmaleimide (NEM) at 25 mM is added for quantification of oxidized GSSG. • (F) Both wells are incubated for 5 min shaking at 300 rpm at room temperature. • (G) 50 μL of Luciferin Generation Reagent is added per well, and both wells shaken for 1 min. • (H) Both wells are incubated for 29 min standing at room temperature. • (I) 100 μL of Luciferin detection reagent is added to both wells and they are shaken for 1 min. • (J) Both wells are incubated for 14 min. • (K) Both wells are transferred to an assay plate containing a calibration curve (suitably prepared as in the supplier's protocol). • (L) The luminescence of each well is measured with FLUOstar® Omega “GSHG assay” […]

HepaRG ® = conditions: HepaRG, 50,000 cells/well, menadione-treated; cited from earlier work
NHBE cells [9] = experiment: Cell viability / cytotoxicity (ATP levels) in NHBE cells; type: cell-based, human
A549 = conditions: A549, 5,000 cells/well, menadione-treated; cited from earlier work
[10] = 30 µM, 1 hour and 2 hour time points
[11] = higher dose (300 μM) versus lower dose, 3D bronchial culture
[12] = higher dose (300 μM), 3D bronchial culture
[13] = lower dose (100 μM), 3D bronchial culture
[14] = 3D bronchial cultures, lipid-soluble menadione, dose-dependent

CC1(S(=O)(=O)[O-])CC(=O)c2ccccc2C1=O.[Na+] (stereo not shown) [Menadione sodium bisulfite, menadione sodium bisulfite]
ROS (NHBE cells [1]; [10]): increased ROS
GSH/GSSG (NHBE cells [2]; [10]): no changes in GSH/GSSG
GSSG (3D bronchial cultures [3]; [11]): no further impact
GSH (3D bronchial cultures [3]; [12]): further decreased
GSH/GSSG (3D bronchial cultures [3]; [12]): further decreased
GSH/GSSG (3D bronchial cultures [3]; [13]): no effect on GSH/GSSG
ROS (3D bronchial cultures [4]; [11]): no further impact
ROS (3D bronchial cultures [4]; [13]): significantly increased ROS

CC1=CC(=O)c2ccccc2C1=O [Menadione]
ROS (NHBE cells [1]; 100 μM): increased ROS
ROS (NHBE cells [1]; 300 μM (highest dose)): highest ROS
GSH/GSSG (NHBE cells [2]; 100 μM): decreased GSH/GSSG
GSH/GSSG (NHBE cells [2]; 300 μM (highest dose)): lowest GSH/GSSG
GSH/GSSG reduction (NHBE cells [2]; 300 μM (highest dose)): 6 fold
Ratio GSH/GSSG (HeLa): 2.2
Ratio GSH/GSSG (Rat hepatocytes): 1.1
ROS (A549 lung cell line [5]): increase in ROS
cell viability (3D bronchial cultures [6]): no effects on cell viability
Ratio GSH/GSSG (HepG2): 2.2
cell viability (A549 lung cell line [7]): effects on cell viability at the two highest concentrations
GSH (3D bronchial cultures [3]; [14]): dose-dependent decrease
GSH/GSSG (3D bronchial cultures [3]; [14]): dose-dependent decrease
GSSG (3D bronchial cultures [3]; [14]): increase
GSH/GSSG (A549 lung cell line [8]): decrease in GSH/GSSG
ROS (3D bronchial cultures [4]; [14]): increase
Ratio GSH/GSSG (HepaRG ®): 2.5
cell viability (NHBE cells [9]; 300 μM (highest dose)): decreased cell viability
oxidative stress and cytotoxicity (as determined by ATP levels) with longer exposure (NHBE cells [9]; 2 hour versus 1 hour time point): more oxidative stress and cytotoxicity
Ratio GSH/GSSG (A549): 10.9

Reference: patent US20260243781A1, “METHOD” (Philip Morris Products S.A., priority 2023, published 2026)
